Measurements: patent publication US20180311237A1, “COMPOSITIONS AND METHODS FOR PREVENTING AND TREATING MUCOSITIS AND WEIGHT LOSS” (ST IP Holding AG, priority 2007, published 2018)
Several values for one entry are separate records, joined by “and”; a condition that tells them apart may be missing. Equal values may be shown once. Read-outs that look alike come from different tables or passages of the source. Marks after values point to notes of the source that are not given here.

Assays:
[1] = Procedure: The general condition and body weights of the mice in all groups were observed daily. The percent change in body weight in each group of mice was recorded every day by dividing the average body weight of those mice on the first day of treatment.
[2] = oral administration with cysteine (Hassan M. Ali et al., 1984); cited from earlier work
[3] = test system: reduced glutathione (GSH)
Procedure: (§1) Thirty minutes after the last administration, the animals were exposed to 8 Gy gamma radiation. Survival of the animals was recorded for 30 days after irradiation. The reduced glutathione (GSH) and lipid peroxidation (LPO) levels in liver and blood were estimated after 30 minutes of radiation exposure.
The hepatic level of reduced glutathione (GSH) was determined as per the standard method. GSH content in blood was measured
Spectrophotometrically using Ellman's reagent (DTNB) as a colouring reagent. The absorbance was read at 412 nm using a UV-VIS Systronics Spectrophotometer.

[4] = test system: endogenous spleen colony forming units (CFU-S); details: day 10 post-irradiation
Procedure: The endogenous spleen colony assay was done according to the method of Till and McCulloch. Endogenous spleen colony forming units (CFU-S) were determined on day 10 after irradiation. Animals were sacrificed by cervical dislocation. Their spleens were removed, weighed and fixed in Bouin's fixative. Grossly visible nodules on the surface of the spleen were counted with the naked eye.

[5] = test system: mice exposed to 6, 8 and 10 Gy gamma radiation
Source text: Male Swiss albino mice (Mus musculus), 6-8 weeks old with 25±3 g body weight from an inbred colony (obtained from Hamadard University, Delhi, India) were used for the present study. Animals were maintained under controlled conditions of temperature and light in an animal house and were provided with standard mice feed (procured from Hindustan Lever's Ltd. Delhi, India) and water ad libitum.
Cobalt teletherapy unit (ATC-C9) at the Cancer treatment centre, Radiotherapy Department, SMS Medical College & Hospital, Jaipur, India, was used for irradiation.
as §1
The protective capacity of an agent (chemical or plant extract) is expressed as dose reduction factor (DRF). It can be calculated by dividing the LD50/30 of experimental animals by LD^50/30 of control animals.
Mice of both groups (control as well as experimental) exposed to 6, 8 and 10 Gy gamma radiation were checked daily for 30 days and the percentage of mice surviving 30 days of exposure against each radiation dose was used to construct survival-dose response curves.
The results obtained are expressed as mean±SE. Student's “t” test was used to make a statistical comparison between the groups. Significance levels were set at P<0.05, P<0.01 and P<0.001. Regression analysis was done to obtain LD50/30 values and to determine the dose reduction factor (DRF).

[6] = type: in vivo
Procedure: (§2) Ninety-six (96) female nude mice ([…]) were randomly assigned into 8 treatment groups. Each mouse was inoculated with 1×10^6 NCI-H146 (H146) small cell lung cancer cells in a volume of 0.05 mL on their lower left flank with Matrigel. Treatment began once tumors reached a volume of 75-125 mm^3.
(§3) Initiation of drug treatment was designated day 1. Mice in groups 1 and 5 received vehicle by oral gavage once daily on days 1 and 3. […] Mice in groups 5 to 8 received radiation. The radiation was given as 2 doses of 2 Gy/dose on days 2 and 4. This was accomplished by anesthetizing the mice in these groups with ketamine (100 mg/kg) and xylazine (5 mg/kg) and placing them under a lead shield such that the region of the flank with tumor exposed to the radiation. Radiation was delivered using a Philips 160 kV source at a focal distance of approximately 40 cm, and a dose rate of approximately 1.0 Gy/min. Tumours were measured on alternating days throughout the duration of the study. All mice were sacrificed on day 21 and remaining tumours were excised, measured, weighed, photographed and fixed in formalin for later analysis.
All animals were weighed every day and their survival recorded, in order to assess possible differences in animal weight among treatment groups as an indication of possible toxicity resulting from the treatments.

[7] = test system: NCI-H146 (H146) small cell lung cancer cells
Procedure: as §2, §3
H146 human lung cancer cells were obtained from ATCC. These cells were grown in DMEM supplemented with 10% Fetal Calf Serum (FCS), penicillin and streptomycin, and 2 mM L-Glutamine. Cells were sub-cultured by removing the medium, rinsing twice with sterile calcium- and magnesium-free phosphate buffered saline (PBS) and adding 1 to 2 ml of 0.25% trypsin, 0.03% EDTA solution. The flask was allowed to sit at 37° C. until the cells detached. Cells were then sub-cultured at a ratio of 1:3.
Tumours were measured once every two days with micro-calipers, and tumour volume was calculated as (length×width)[…]. The tumour growth index (TGI) was calculated using the formula 100−([…]), where Vc is the mean volume of the tumours in the control group and Vt is the mean volume of the tumours in the test group.
Tumour volumes were calculated from the length and width measurements taken on alternating days by calculating the mean radius (r), which was the sum of length and width divided by 4, and using the formula 4/3 πr^3 to calculate the volume.

[8] = 100 mg/kg body weight/day, 2 days, + gamma radiation
[9] = radiation plus 50 mg/kg on days 1 to 20
[10] = radiation plus 100 mg/kg on days 1 and 3
[11] = 50 mg/kg on days 1 and 3, no radiation
[12] = 50 mg/kg on days 1 to 20, no radiation
[13] = 100 mg/kg on days 1 and 3, no radiation
[14] = radiation plus 50 mg/kg on days 1 and 3

Question: Which “Maximum body weight loss in experimental groups” value [1, 8] does the source give for `Cc1c(-c2cnccn2)ssc1=S` here?
Answer: Its value is 22.05%.

Question: And the “minimum body weight loss in experimental groups” value [1, 8]?
Answer: The value was 1.7%.

Question: What about the “increase in body weight from initial body weight at day-30 post-irradiation” value (shortened to “increase in body weight”) ([1]; drug + 6 Gy) of the same compound?
Answer: Its value is 17%.

Question: And the “increase in body weight” value ([1]; drug + 8 Gy)?
Answer: The value was 9.5%.

Question: And the “increase in body weight” value ([1]; drug + 10 Gy)?
Answer: Its value is 13.7%.

Question: And the “extent and rate of bioavailability” value [2]?
Answer: Its value is “marked increase”.

Question: What about the “Blood GSH” value ([3]; drug + 6 Gy) of the same compound?
Answer: The value was 3.02 ± 0.12^c μg/ml.

Question: And the “Liver GSH” value ([3]; drug + 6 Gy)?
Answer: Its value is 52.44 ± 1.54^b μmole/gm.

Question: And the “Blood GSH” value ([3]; drug + 8 Gy)?
Answer: Its value is 2.88 ± 0.11^b μg/ml.

Question: What about the “Liver GSH” value ([3]; drug + 8 Gy) of the same compound?
Answer: The value was 54.62 ± 1.72^c μmole/gm.

Question: What about the “Blood GSH” value ([3]; drug + 10 Gy) of the same compound?
Answer: The value was 2.40 ± 0.12 µg/mL.

Question: What about the “Liver GSH” value ([3]; drug + 10 Gy) of the same compound?
Answer: The value was 44.38 ± 1.42^c μmole/gm.

Question: And the “Blood GSH” value ([3]; drug alone, no irradiation)?
Answer: The value was 4.18 ± 0.18 µg/mL.

Question: And the “Liver GSH” value ([3]; drug alone, no irradiation)?
Answer: Its value is 65.68 ± 1.48 μmole/gm.

Question: What about the “Number of macroscopic colonies” value ([4]; drug + 6 Gy) of the same compound?
Answer: Its value is 10.22 ± 0.62.

Question: What about the “Number of macroscopic colonies” value ([4]; drug + 8 Gy) of the same compound?
Answer: Its value is 13.80 ± 0.84^c.

Question: And the “Number of macroscopic colonies” value ([4]; drug + 10 Gy)?
Answer: Its value is 15.22 ± 0.77^c.

Question: And the radiation sickness ([5]; 100 mg/kg body weight/day before 6 Gy)?
Answer: Its radiation sickness is “No radiation sickness was observed”.

Question: And the “30-Day Survival Percentage” value ([5]; 100 mg/kg body weight/day orally, 2 days, before 6 Gy)?
Answer: The value was 100%.

Question: And the “30-Day Survival Percentage” value ([5]; 100 mg/kg body weight/day orally, 2 days, before 8 Gy)?
Answer: Its value is 61%.

Question: And the “30-Day Survival Percentage” value ([5]; 100 mg/kg body weight/day orally, 2 days, before 10 Gy)?
Answer: The value was 20%.

Question: What about the “LD50/30 of experimental animals” value ([5]; 100 mg/kg body weight/day orally, 2 days, before radiation, regression analysis of survival data) of the same compound?
Answer: Its value is 8.82 Gy and 8.51 Gy.

Question: What about the “DRF (dose reduction factor)” value ([5]; LD50/30 of experimental animals divided by LD50/30 of control animals) of the same compound?
Answer: The value was 1.34.

Question: And the “optimum dose exhibiting maximum radioprotection” value ([5]; for 2 consecutive days before irradiation (8 Gy))?
Answer: The value was 100 mg/kg body weight/day.

Question: What about the “average loss of starting weight by Day 21” value ([6]; 50 mg/kg po on days 1 and 3, no radiation) of the same compound?
Answer: The value was 0.1%.

Question: What about the “average gain of starting weight by Day 21” value (“average gain” for short) ([6]; 50 mg/kg po on days 1 to 20, no radiation) of the same compound?
Answer: Its value is 0.8%.

Question: And the “average gain” value ([6]; 100 mg/kg po on days 1 and 3, no radiation)?
Answer: Its value is 4.8%.

Question: What about the “toxicity based on observations of survival and weight change” value ([6]; 50 or 100 mg/kg po, with or without radiation, 21 days) of the same compound?
Answer: Its value is “no evidence of toxicity”.

Question: What about the “average gain” value ([6]; radiation (2 Gy days 2 and 4) plus 50 mg/kg on days 1 and 3) of the same compound?
Answer: The value was 0.8%.

Question: And the “average gain” value [6, 9]?
Answer: The value was 1.4%.

Question: And the “average gain” value [6, 10]?
Answer: Its value is 5.1%.

Question: What about the “mean tumour volume on Day 1” value [7, 11] of the same compound?
Answer: The value was 72 mm^3.

Question: What about the “mean tumour volume on Day 21” value [7, 11] of the same compound?
Answer: Its value is 940 mm^3.

Question: And the “mean tumour volume on Day 1” value [7, 12]?
Answer: The value was 76 mm^3.

Question: And the “mean tumour volume on Day 21” value [7, 12]?
Answer: The value was 1130 mm^3.

Question: What about the “mean tumour volume on Day 1” value [7, 13] of the same compound?
Answer: Its value is 110 mm^3.

Question: What about the “mean tumour volume on Day 21” value [7, 13] of the same compound?
Answer: Its value is 1341 mm^3.

Question: What about the “effect on tumour volume when given in conjunction with radiation therapy” value ([7]; doses and dose schedules of this study) of the same compound?
Answer: Its value is “does not have an additive effect”.

Question: What about the “mean tumour volume on Day 1” value [7, 14] of the same compound?
Answer: The value was 93 mm^3.

Question: And the “mean tumour volume on Day 21” value [7, 14]?
Answer: The value was 971 mm^3.

Question: And the “mean tumour volume on Day 1” value [7, 9]?
Answer: The value was 140 mm^3.

Question: What about the “mean tumour volume on Day 21” value [7, 9] of the same compound?
Answer: The value was 1380 mm^3.

Question: What about the “mean tumour volume on Day 1” value [7, 10] of the same compound?
Answer: Its value is 63 mm^3.

Question: What about the “mean tumour volume on Day 21” value [7, 10] of the same compound?
Answer: Its value is 769 mm^3.

Question: And the “tumour volume relative to vehicle controls by day 21” value ([7]; single agent, 50 mg/kg once daily on days 1 and 3 (P=0.030))?
Answer: Its value is “significant reduction in tumour volume”.
